The target of test [1] is Factor Xa (Homo sapiens, UniProt P00742). As to the kind of experiment: In vitro inhibition of serine proteases: factor Xa. It is filed as biochemical. As for the experimental part: Ki values were determined according to Dixon by linear regression using a computer program.
Test [2] relates to pancreatic adenocarcinoma CA20948. As to the kind of experiment: Pancreatic carcinoma model in rats. It is filed as in vivo, rat. To be noted: for mass of the tumor-containing pancreas, reduced by % / masses of the subcutaneous tumors, reduced by %: vs vehicle-treated group. The procedure: Fragments of the transplantable and metastasizing pancreatic adenocarcinoma CA20948 from rats were explanted from donor animals. After cell isolation, equal amounts of suspended tumor cells together with 2 mg of Matrigel were subcutaneously implanted into each of the acceptor animals, male 10 week-old Lewis rats (n=9). The treatment procedure and also the composition of the therapy groups were the same as under A).
The experiments described in sections A and B were repeated with the inhibitor administered in a different way. For this, the inhibitor was administered subcutaneously in the breast carcinoma model (n=9) and intraperitoneally in the pancreatic adenocarcinoma model (n=8) without changing the daily dose. The results of these repeat experiments corresponded to the results already discussed, both in tendency and extent.

Setting [3] is: 1 mg/kg daily, vs naphthyl derivative and control (FIG. 5).

Consider one compound from patent US7342018B2, “Urokinase inhibitors and uses thereof” (Wilex AG, priority 1998, dated 2008).

The structures appear in SMILES notation. pKi: −log10 of the molar value.

Chain of Factor Xa (P00742 235-488 limits assumed): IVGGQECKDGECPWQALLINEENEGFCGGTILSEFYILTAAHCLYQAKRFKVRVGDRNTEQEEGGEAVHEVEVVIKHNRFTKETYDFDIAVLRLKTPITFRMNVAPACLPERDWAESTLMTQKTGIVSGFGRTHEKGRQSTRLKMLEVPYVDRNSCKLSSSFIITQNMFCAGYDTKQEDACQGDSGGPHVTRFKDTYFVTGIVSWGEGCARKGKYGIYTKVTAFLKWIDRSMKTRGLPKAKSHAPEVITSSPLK
Chain of Factor Xa (P00742 41-179 partner limits assumed): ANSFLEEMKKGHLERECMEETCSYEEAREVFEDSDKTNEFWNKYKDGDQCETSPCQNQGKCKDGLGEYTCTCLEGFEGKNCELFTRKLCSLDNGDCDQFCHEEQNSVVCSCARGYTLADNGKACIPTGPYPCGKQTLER

As to `CCOC(=O)N1CCN(C(=O)[C@H](Cc2cccc(C(=N)N)c2)NS(=O)(=O)c2c(C(C)C)cc(C(C)C)cc2C(C)C)CC1.Cl` [uPA inhibitor, Nα-2,4,6-Triisopropylphenylsulfonyl-(L)-3-amidinophenylalanine 4-ethoxycarbonylpiperazide hydrochloride], the pKi (commonly the Ki on a negative log10 scale, so that one unit is a factor of ten) in test [1] is 5.77. Moreover, in test [2] (setting [3]), the “growth of developing rat pancreatic carcinomas” value is “decrease” and the tumor weight entry was “significant reduction”. Moreover, in test [2] (i.p., 1 mg/kg daily), the “number of detected liver foci, % compared to vehicle-treated control” value is reported as 29%; the “mass of the tumor-containing pancreas, reduced by %” value came out at 76%; the “masses of the subcutaneous tumors, reduced by %” value is recorded as 54%. For the same compound, in test [2] (rat pancreatic cancer model, vs vehicle-treated controls), the “number of metastatic liver foci” value is recorded as “substantially reduced”. Further, in test [2] (s.c., 1 mg/kg daily), the “number of detected liver foci, % compared to vehicle-treated control” value worked out at 2%; the “mass of the tumor-containing pancreas, reduced by %” value was 34%; the “masses of the subcutaneous tumors, reduced by %” value is 60%.
